The values below come from patent publication US7612107B2, “Treatment and inhibition of disease conditions using flexible heteroarotinoids” (The Board of Regents of the University of Oklahoma, priority 2005, dated 2009).

The subject of one series is dorsal skin. Kind of series: Topical irritancy in Skh hairless mice. The class given is in vivo. The note with it: topical, dorsal skin, 4 days, 2-log dose range. As to the method: Female Skh hairless mice, 6-8 weeks old, were treated topically on the dorsal skin for 4 days over a 2-log concentration dose range with various compounds. Retinoic acid receptor-Hets were evaluated in A, while retinoic acid receptor-independent Flex-Hets were evaluated in B. Daily flaking and abrasion scores were combined to calculate a single cutaneous toxicity score for each mouse. Each treatment group consisted of 4 mice, and group averages were used to plot cutaneous toxicity against doses of the compounds.
Topical irritancy was evaluated according to published procedures (29). Briefly, female Skh hairless mice, 6-8 weeks old, were treated topically on the dorsal skin for 4 days over a 2-log concentration dose range with various compounds. Daily flaking and abrasion scores were combined to calculate a single cutaneous toxicity score for each mouse. Each treatment group consists of 4 mice, and group averages are used to plot cutaneous toxicity against dose of the retinoid compound.

For the next series, the system named is C6 glioma. Kind of series: Rat glioma (brain cancer) model, MRI. The class given is in vivo. The note with it: oral 60 mg/kg/day; vs untreated control. Here is the method:
FIG. 9. SHetA2 inhibition of Angiogenesis. C6 glioma cells were injected into the brains of 2 rats. One week later, one rat was gavaged with 60 mg/kg/day SHetA2 on each Monday, Wednesday and Friday. Blood vessels were imaged by MRI.
FIG. 10. […] C6 glioma cells were injected into the brains of 2 rats. One week later, one rat was gavaged with 60 mg/kg/day SHetA2 on each Monday, Wednesday and Friday. The blood flow was measured by MRI imaging.
FIG. 11. SHetA2 inhibition of glioma tumor growth. C6 glioma cells were injected into the brains of 2 rats. One week later, one rat was gavaged with 60 mg/kg/day SHetA2 on each Monday, Wednesday and Friday. The tumor size was measured by MRI imaging.
In this in vivo model, glioma cells are injected into the brains of rats and the growth of the tumor and development of blood vessels in the tumor is measured by magnetic resonance imaging (MRI).

In another series the test system is B16 mouse melanoma. Kind of series: B16 melanoma syngeneic tumor model. It counts as in vivo. Here is the method: (§1) FIG. 12. Various Xenograft tumors stained with CD34 antibodies (brown) to identify endothelium. The B16 mouse melanoma cell line was established as a syngeneic tumor in an immunocompetent mouse model and the human Caki renal cancer and A2780 ovarian xenograft tumors in immunocompromised mice. The treated mice were gavaged with 60 mg/kg/day SHetA2 and the untreated were gavaged with solvent only. The tumors were excised and sections were stained with the anti-CD34 antibody to detect endothelial cells (brown stain).
(§2) Survival was the primary endpoint of those studies. […] Tumor growth was the primary endpoint of the renal cancer study.

Series [1] deals with Caki renal cancer xenografts. The experiment in a line: Caki renal cancer xenograft tumor model. It counts as in vivo, mouse. As to the method:
as §1
FIG. 20. Mice harboring Caki renal cancer xenografts were treated with 60 mg/kg/day SHetA2 or PEG400 vehicle for 15 days. After another 15 days of growth, the tumors were removed, fixed, embedded and sections. Sections were stained with PAS to identify glycoproteins and lysosomes. The untreated tumor is on the left and the treated tumor is on the right.
as §2

Series [2] relates to organotypic cultures of normal endometrial cells. Kind of series: Chemoprevention in DMBA-treated endometrial organotypic cultures. The class given is cell-based. The note with it: histology and karyometric analysis. From the text:
Untreated: The specimen is cellular with both surface and mid-gel cells presence in abundance. Two cell types are clearly present. One appears to be stromal. The nuclei are thin and spindle shaped and the cytoplasm is similar. When cut in cross-section the nuclei are very small and round and hyperchromatic. The other cells have large, oval to almost boxcar nuclei with small nucleoli and abundant cytoplasm. Numerous mitosis are present. The epithelial cells are almost syncitial in nature and appear to cling to one another. With DMBA Carcinogen: The specimen is cellular. The cells present have lost their cytoplasm. There is more pleomorphism of the cells and many are very hyperchromatic. Mitoses are very numerous-approximately 2× the number in untreated. Cells no longer are together but are distinct one from another. Stromal cells intermix with the epithelial cells. […]
FIG. 19 illustrates a typical experiment in which organotypic cultures of normal endometrial cells were treated with a carcinogen called DMBA and developed the cancer phenotype. […] All segmented nuclei were then subjected to texture feature extraction using TICAS software, resulting in 95 texture features for each nucleus that were subjected to quantitative analysis.

Regarding `CC1(C)CC(C)(C)c2cc(NC(=S)Nc3ccc([N+](=O)[O-])cc3)ccc2S1` [SHetA2], in the series with dorsal skin, the “Topical irritancy (cutaneous toxicity score)” value is on record as “did not induce topical irritancy”. Besides, in the series with C6 glioma, the “Angiogenesis of glioma tumors (MRI)” value is listed as “inhibited the angiogenesis”; the “Growth of glioma tumors (MRI)” value is “inhibited the angiogenesis and growth of the tumors”. Further, the Survival result with B16 mouse melanoma is recorded as “improved survival”. In addition, in series [1] (60 mg/kg/day for 15 days, treated vs untreated tumors), the “PAS stain of renal xenograft tumors” value was “increase in general glycoprotein expression and lysosomal staining”. Also, the Tumor growth result in series [1] (renal cancer model) is on record as “decreased tumor growth”. The “Development of blood vessels inside tumors (anti-CD34 staining)” value in series [1] (renal, oral 60 mg/kg/day) is recorded as “inhibited the development of blood vessels”. For the same molecule, in series [2], the “Development of the cancer phenotype after DMBA carcinogen” value is given as “prevented the development of this phenotype”.
